Measurements taken from patent US11730714B2, “Compounds for the treatment of neuromuscular disorders” (NMD PHARMA A/S, priority 2017, dated 2023).

Tests used:
Assay type in all cases: cell-based
[1] = tested on: isolated rat muscle; test: Measurement of force in an in vitro model: isolated rat soleus nerve-muscle preparation, 115 nM tubocurarine; settings: 50 μM compound, 40 mins exposure, 115 nM tubocurarine, isolated rat soleus nerve-muscle preparation
Method: FIGS. 12A-12B. […] Force traces from a representative muscle stimulated to contract in 1) control condition before addition of neuromuscular blocking agent, 2) the force response to stimulation after 90 minutes incubation with Tubocurarine. […] The traces presented in FIG. 12A (1, 2, 3), correspond to the dotted lines in FIG. 12B, respectively.
Recovery of force is quantified as the percentage of the force prior to tubocurarine that is recovered by the compound.
The current invention relates to compounds that inhibit CIC-1 ion channels and increase muscle excitability and thereby improve muscle function in clinical conditions where muscle activation is failing. Such conditions result in loss of contractile function of skeletal muscle, weakness and excessive fatigue. […]
Experimentally, soleus muscles from 4-5 wk old rats were isolated with the motor nerve remaining attached. […] Stimulation of the motor nerve led to activation of the muscle fibres and ensuing force production that was recorded.
After mounting the nerve-muscle preparation in the experimental setup, the contractile function of the muscle was initially assessed under the control conditions (FIG. 2A). […] To quantify the ability of the compound to restore force the percentage of the initial force that was restored was determined after 40 mins of compound exposure (FIG. 2B) and the point increase is reported in Table 8.

[2] = tested on: isolated rat soleus muscles; test: Recovery of nerve-stimulated force in isolated rat soleus muscles exposed to sub-maximal tubocurarine; settings: change in AUC vs AUC after 40 min in tubocurarine before addition
Method: Experiments were performed using rat soleus muscles from either young (4-wk-old) or adult Wistar rats (12-14-week-old). Animal handling, killing and isolation of muscle is described elsewhere All experiments were performed using normal Krebs-Ringer bicarbonate solution (NKR). In solutions with elevated Mg^2+, MgCl2 was added to NKR-solution causing minor increases in osmolarity and ionic strength. In solutions with elevated K^+, 4 mM NaCl was replaced by 4 mM KCl in the NKR.
In all contraction experiments, isometric force production was determined and force produced during contractions was quantified by measuring the integral of the force response (AUC). Stimulation and force recordings have been described elsewhere. […] In these latter experiments, extracellular recordings of action potentials (M-waves) could be measured without temporal overlap with stimulation artefacts.
The aim was to find compounds that by inhibition of CIC-1 channels can recover nerve-stimulated force under conditions of fatigue including conditions where fatigue is caused by compromised neuromuscular transmission. Neuromuscular transmission dysfunction can develop because of both pre- and/or post-synaptic complications in connection with a disorder or as part of neuromuscular blockade during/after surgery. In the initial series of drug testing, experiments were performed with isolated muscles in the presence of sub-maximal ACh receptor antagonist tubocurarine. Since the inclusion of tubocurarine caused a partial loss of neuromuscular transmission this experiment mimics the conditions in myasthenia gravis and neuromuscular blockade. To mimic conditions with pre-synaptic complication (Lambert Eaton syndrome, motor neuron disorder, polyneuropathy) the intact nerve-muscle preparations were incubated at elevated extracellular Mg^2+, which is known to suppress release of ACh from nerve terminals of motor neurons.
The experiments also illustrate that field stimulation of the entire nerve-muscle preparation selectively activates the motor nerve when short-duration pulses (0.02 vs 0.2 ms) were used. In FIG. 1A the preparation was stimulated either via field stimulation or via nerve-stimulation using a suction electrode. With the suction electrode only the nerve could be stimulated. When exposed to a submaximal concentration of the ACh receptor antagonist tubocurarine (0.2 μM) a clear drop in peak force and a further decline (or fade) in force during the stimulation developed. This drop in force clearly reflected compromised neuromuscular transmission, as the decline in peak force and fading were not seen with direct stimulation of the muscle. […] Thus, loss of M-wave and force with tubocurarine reflected partial blockade of neuromuscular function. Such fading of force and M-waves during stimulation represent clinical hallmarks of both myasthenia gravis and neuromuscular blockade in connection with surgery. In FIG. 1B, observations with normal (0.2 ms) and short-duration (0.02 ms) pulses have been compared. It can be seen that only with short-duration pulses did tubocurarine cause a decline in peak force and fading (FIG. 1B). This confirms that short-duration pulses in field stimulation could be used as specific nerve-stimulation. […] Elevated extracellular Mg^2+ could thus be used to partially block neuromuscular transmission and thus be used as a model of conditions with compromised pre-synaptic function (Lambert Eaton syndrome, amyotrophic lateral sclerosis, spinal muscular atrophy). […]

[3] = tested on: isolated rat soleus muscles; test: Recovery of nerve-stimulated force in isolated rat soleus muscles with ACh receptors inhibited by 2 μM rocuronium; settings: 50 μM C8 added after 2 μM rocuronium had reduced force to 51±5%; 8 muscles; p<0.01
Method: In a separate series of experiments with 8 isolated rat soleus muscles, ACh receptors were inhibited using 2 μM rocuronium, which is a clinically used neuromuscular blocking agent. Under these conditions the nerve-stimulated force was reduced to 51±5% of force before rocuronium. […] This illustrates the potential of these compounds to be used as reversal agents.

Molecule | Point increase (%) of initial force that was restored [1] [%] | 50 μM % change after addition (AUC of nerve-stimulated force) ([2]; 50 μM compound, AUC related to force prior to tubocurarine) [%] | 150 μM % change after addition (AUC of nerve-stimulated force) ([2]; 150 μM compound) [%] | nerve-stimulated contractile force recovered to % of force before rocuronium [3] [%]
(2S)-2-(4-bromophenoxy)(2-^2H)butanoic acid [Compound A-60] | 62 | – | – | –
C[C@H](Oc1ccc(Br)cc1)C(=O)O [Compound C8, (2S)-2-(4-bromophenoxy)propanoic acid] | – | 16 | 23 | 81±4
